Test results published in US8513266B2, “Methods of treating cancer using pyridopyrimidinone inhibitors of PI3K alpha” (priority 2007, dated 2013).

Experiments:
Format in all cases: in vivo
[1] = test system: A549 human lung carcinoma cells; assay: A549 non-small cell lung cancer xenograft model; conditions: Compound A 30 mg/kg qd
Description: (§1) Female and male athymic nude mice (NCr) 5-8 weeks of age and weighing approximately 20-25 g were used in the following model. Prior to initiation of a study, the animals were allowed to acclimate for a minimum of 48 h. During these studies, animals were provided food and water ad libitum and housed in a room conditioned at 70-75° F. and 60% relative humidity. A 12 h light and 12 h dark cycle was maintained with automatic timers. All animals were examined daily for compound-induced or tumor-related deaths.
(§2) A549 human lung carcinoma cells were cultured in vitro in DMEM (Mediatech) supplemented with 10% Fetal Bovine Serum (Hyclone), PenicilliN-Streptomycin and non-essential amino acids at 37° C. in a humidified 5% CO2 atmosphere. […] A transponder was implanted in each mouse for identification, and animals were monitored daily for clinical symptoms and survival. Body weights were recorded daily. […]
(§3) For subcutaneous or intradermal tumors, the mean tumor weight of each animal in the respective control and treatment groups was determined twice weekly during the study. Tumor weight (TW) was determined by measuring perpendicular diameters with a caliper, using the following formula: tumor weight (mg)=[tumor volume=length (mm)×width^2 (mm^2)]/2
(§4) Percent inhibition of tumor growth (TGI) is determined with the following formula: […]

[2] = test system: MCF7 human mammary adenocarcinoma cells; assay: MCF7 breast cancer xenograft model; conditions: MCF7 tumors at end of study, 30 mg/kg qd each agent, alone or combined
Description: as §1
MCF7 human mammary adenocarcinoma cells were cultured in vitro in DMEM (Cellgro) supplemented with 10% Fetal Bovine Serum (Cellgro), Penicillin-Streptomycin and non-essential amino acids at 37° C. in a humidified 5% CO2 atmosphere. […] A transponder was implanted into each mouse for identification and data tracking, and animals were monitored daily for clinical symptoms and survival. During the dosing period, the tumor weight of each animal was determined twice weekly and the body weight of each animal was measured daily. […]
as §3, with “(mm^2)]/2 […]” for “(mm^2)]/2”

[3] = test system: Calu-6 human lung anaplastic carcinoma cells; assay: Calu-6 non-small cell lung cancer xenograft model; conditions: Calu-6 xenograft, single agents; Compound A 100 mg/kg q2d or 30 mg/kg bid oral; carboplatin 50 mg/kg i.v. q4d
Description: as §1
as §2, with “Calu-6” for “A549”, “lung anaplastic” for “lung”, “Penicillin-Streptomycin” for “PenicilliN-Streptomycin”, “humidified,” for “humidified”
as §3, §4

[4] = test system: MDA-MB-468 human breast adenocarcinoma cells; conditions: MDA-MB-468 xenograft; erlotinib 100 mg/kg qd oral; Compound A 100 mg/kg q2d oral; combination of the two
Description: as §1, with “deaths. […]” for “deaths.”
as §3
Percent inhibition of tumor growth (TGI) is determined with the following formula:
[formula] • where X0=average TW of all tumors on group day • Xf=TW of treated group on Day f • Yf=TW of vehicle control group on Day f If tumors regress below their starting sizes, then the percent tumor regression is determined with the following formula:
[formula] Tumor size is calculated individually for each tumor to obtain a mean±SEM value for each experimental group. […]

[5] = test system: PC-3 human prostate adenocarcinoma cells
Description: as §1
as §2, with “PC-3” for “A549”, “prostate adenocarcinoma” for “lung carcinoma”, “20%” for “10%”, “Penicillin-Streptomycin” for “PenicilliN-Streptomycin”
as §3, §4

## COc1cc2c(Nc3ccc(Cl)c(Cl)c3F)ncnc2cc1OC[C@@H]1C[C@@H]2CN(C)C[C@@H]2C1 [Compound B, N-(3,4-dichloro-2-fluorophenyl)-7-({[(3aR,5r,6aS)-2-methyloctahydrocyclopenta-[c]pyrrol-5-yl]methyl}oxy)-6-(methyloxy)quinazolin-4-amine]
[1]; Compound B 30 mg/kg qd oral for 18 days, combination: Compound B followed by Compound A after about six hours
  tumor growth inhibition (TGI) (FIG. 4a): 80%
[1]; Compound B 30 mg/kg qd, alone or co-administered
  dose skipping: no dose omission
[2]; compared to vehicle control
  induction of TUNEL-positive (apoptotic) cells: did not result in a significant induction
[2]
  decrease in CD31-positive tumor vessels (microvessel density, MVD): 31%

## N.N.O=C([O-])C1(C(=O)[O-])CCC1.[Pt+2] [carboplatin]
[3]
  tumor growth inhibition (FIG. 3): Significant tumor growth inhibition

## C#Cc1cccc(Nc2ncnc3cc(OCCOC)c(OCCOC)cc23)c1 [erlotinib]
[4]
  tumor growth inhibition (FIG. 5): significant but incomplete tumor growth inhibition

## CO[C@H]1C[C@@H]2CC[C@@H](C)[C@@](O)(O2)C(=O)C(=O)N2CCCC[C@H]2C(=O)O[C@H]([C@H](C)C[C@@H]2CC[C@@H](O)[C@H](OC)C2)CC(=O)[C@H](C)/C=C(\C)[C@@H](O)[C@@H](OC)C(=O)[C@H](C)C[C@H](C)/C=C/C=C/C=C/1C [rapamycin, Rapamycin]
[5]; PC-3 tumors resected at end of efficacy study, Compound A 100 mg/kg q2d, rapamycin, monotherapy or combined
  decrease in the fraction of proliferating cells (Ki67) (FIG. 6): 77%

## CC(=O)O[C@H]1C(=O)[C@@]2(C)[C@H]([C@H](OC(=O)c3ccccc3)[C@]3(O)C[C@H](OC(=O)[C@H](O)[C@@H](NC(=O)c4ccccc4)c4ccccc4)C(C)=C1C3(C)C)[C@]1(OC(C)=O)CO[C@@H]1C[C@@H]2O [taxol, Paclitaxel]
[5]; PC-3 xenograft, Compound A 100 mg/kg q2d or 30 mg/kg bid oral, taxol 7.5 mg/kg i.v. twice weekly, combination of either dose of Compound A with taxol
  tumor growth inhibition (FIG. 1): Comparable tumor growth inhibition
